Results reported in paper PMC6499206, “Quantification of Volatile Metabolites Derived From Garlic (Allium sativum) in Human Urine” (Frontiers in Nutrition, 2019).

Experiment: Quantification of garlic-derived metabolites in human urine after ingestion of 3 g raw garlic (SIDA, SAFE, HRGC-MS / HRGC-GC-MS)
Type: in vivo
Conditions: for metabolite concentration in urine / metabolite concentration in urine, creatinine-normalized: 3 g raw garlic
Method in brief: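 Quantification used stable isotope dilution (²H3-AMS, -AMSO, -AMSO2 standards), SAFE distillation at 50°C of DCM-treated urine, and GC-MS on a DB-FFAP column, with creatinine from the Jaffé reaction at 492 nm. Urine came from 18 volunteers avoiding sulfur-rich foods, sampled before and up to 24 h after eating 3 g raw garlic.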

concentration in urine compared with human milk (3 g raw garlic in both studies, milk data ref 20): about three times as high | metabolite concentration in urine (U I, 0.5 h post (0.55 h)): 168.4 µg/kg | metabolite concentration in urine, creatinine-normalized (U I, 0.5 h post (0.55 h)): 23.6 µg/mmol creatinine | metabolite concentration in urine (U I, 1 h post (1.03 h)): 191.0 µg/kg | metabolite concentration in urine, creatinine-normalized (U I, 1 h post (1.03 h)): 205.9 µg/mmol creatinine | metabolite concentration in urine (U I, 2 h post (2.05 h)): 227.6 µg/kg | metabolite concentration in urine, creatinine-normalized (U I, 2 h post (2.05 h)): 112.5 µg/mmol creatinine | metabolite concentration in urine (U I, 4 h post (4.05 h)): 165.7 µg/kg | metabolite concentration in urine, creatinine-normalized (U I, 4 h post (4.05 h)): 19.1 µg/mmol creatinine | metabolite concentration in urine (U I, 6 h post (6.05 h)): 119.1 µg/kg | metabolite concentration in urine, creatinine-normalized (U I, 6 h post (6.05 h)): 13.2 µg/mmol creatinine | metabolite concentration in urine (U I, 8 h post (8.05 h)): 41.8 µg/kg | metabolite concentration in urine, creatinine-normalized (U I, 8 h post (8.05 h)): 5.8 µg/mmol creatinine | metabolite concentration in urine (U I, 24 h post (25.55 h)): 1.6 µg/kg | metabolite concentration in urine, creatinine-normalized (U I, 24 h post (25.55 h)): 0.3 µg/mmol creatinine | metabolite concentration in urine (U I, pre (-0.03 h)): < LOD^2 | metabolite concentration in urine, creatinine-normalized (U I, pre (-0.03 h)): < LOD^2 | metabolite concentration in urine (U II, 0.5 h post (0.50 h)): 147.7 µg/kg | metabolite concentration in urine, creatinine-normalized (U II, 0.5 h post (0.50 h)): 14.0 µg/mmol creatinine | metabolite concentration in urine (U II, 1 h post (1.00 h)): 133.4 µg/kg | metabolite concentration in urine, creatinine-normalized (U II, 1 h post (1.00 h)): 51.2 µg/mmol creatinine | metabolite concentration in urine (U II, 2 h post (2.00 h)): 63.7 µg/kg | metabolite concentration in urine, creatinine-normalized (U II, 2 h post (2.00 h)): 62.6 µg/mmol creatinine | metabolite concentration in urine (U II, 4 h post (4.00 h)): 64.8 µg/kg | metabolite concentration in urine, creatinine-normalized (U II, 4 h post (4.00 h)): 12.0 µg/mmol creatinine | metabolite concentration in urine (U II, 6 h post (6.00 h)): 33.4 µg/kg | metabolite concentration in urine, creatinine-normalized (U II, 6 h post (6.00 h)): 3.7 µg/mmol creatinine | metabolite concentration in urine (U II, 8 h post (8.00 h)): 15.2 µg/kg | metabolite concentration in urine, creatinine-normalized (U II, 8 h post (8.00 h)): 1.8 µg/mmol creatinine | metabolite concentration in urine (U II, 24 h post (24.12 h)): traces^2 | metabolite concentration in urine, creatinine-normalized (U II, 24 h post (24.12 h)): traces^2 | metabolite concentration in urine (U II, pre (-0.13 h)): < LOD^2 | metabolite concentration in urine, creatinine-normalized (U II, pre (-0.13 h)): < LOD^2 | metabolite concentration in urine (U III, 0.5 h post (0.53 h)): 124.4 µg/kg | metabolite concentration in urine, creatinine-normalized (U III, 0.5 h post (0.53 h)): 74.5 µg/mmol creatinine | metabolite concentration in urine (U III, 1 h post (1.07 h)): 136.4 µg/kg | metabolite concentration in urine, creatinine-normalized (U III, 1 h post (1.07 h)): 192.7 µg/mmol creatinine | metabolite concentration in urine (U III, 2 h post (2.18 h)): 214.7 µg/kg | metabolite concentration in urine, creatinine-normalized (U III, 2 h post (2.18 h)): 133.1 µg/mmol creatinine | metabolite concentration in urine (U III, 4 h post (4.35 h)): 123.7 µg/kg | metabolite concentration in urine, creatinine-normalized (U III, 4 h post (4.35 h)): 47.0 µg/mmol creatinine | metabolite concentration in urine (U III, 6 h post (6.35 h)): 62.3 µg/kg | metabolite concentration in urine, creatinine-normalized (U III, 6 h post (6.35 h)): 12.2 µg/mmol creatinine | metabolite concentration in urine (U III, 8 h post (8.43 h)): 29.0 µg/kg | metabolite concentration in urine, creatinine-normalized (U III, 8 h post (8.43 h)): 5.2 µg/mmol creatinine | metabolite concentration in urine (U III, 24 h post (23.90 h)): 3.0 µg/kg | metabolite concentration in urine, creatinine-normalized (U III, 24 h post (23.90 h)): 0.5 µg/mmol creatinine | metabolite concentration in urine (U III, pre (-0.03 h)): 4.6 µg/kg | metabolite concentration in urine, creatinine-normalized (U III, pre (-0.03 h)): 0.8 µg/mmol creatinine | metabolite concentration in urine (U IV, 0.5 h post (0.55 h)): 144.3 µg/kg | metabolite concentration in urine, creatinine-normalized (U IV, 0.5 h post (0.55 h)): 30.7 µg/mmol creatinine | metabolite concentration in urine (U IV, 1 h post (1.05 h)): 141.0 µg/kg | metabolite concentration in urine, creatinine-normalized (U IV, 1 h post (1.05 h)): 117.5 µg/mmol creatinine | metabolite concentration in urine (U IV, 2 h post (2.12 h)): 129.7 µg/kg | metabolite concentration in urine, creatinine-normalized (U IV, 2 h post (2.12 h)): 82.3 µg/mmol creatinine | metabolite concentration in urine (U IV, 4 h post (4.05 h)): 108.9 µg/kg | metabolite concentration in urine, creatinine-normalized (U IV, 4 h post (4.05 h)): 22.6 µg/mmol creatinine | metabolite concentration in urine (U IV, 6 h post (6.08 h)): 63.5 µg/kg | metabolite concentration in urine, creatinine-normalized (U IV, 6 h post (6.08 h)): 4.6 µg/mmol creatinine | metabolite concentration in urine (U IV, 8 h post (8.05 h)): 31.9 µg/kg | metabolite concentration in urine, creatinine-normalized (U IV, 8 h post (8.05 h)): 6.7 µg/mmol creatinine | metabolite concentration in urine (U IV, 24 h post (24.03 h)): 3.8 µg/kg | metabolite concentration in urine, creatinine-normalized (U IV, 24 h post (24.03 h)): 0.4 µg/mmol creatinine | metabolite concentration in urine (U IV, pre (-0.05 h)): < LOD^2 | metabolite concentration in urine, creatinine-normalized (U IV, pre (-0.05 h)): < LOD^2 | metabolite concentration in urine (U IX, 0.5 h post (0.67 h)): 164.4 µg/kg | metabolite concentration in urine, creatinine-normalized (U IX, 0.5 h post (0.67 h)): 156.1 µg/mmol creatinine | metabolite concentration in urine (U IX, 1 h post (1.17 h)): 332.3 µg/kg | metabolite concentration in urine, creatinine-normalized (U IX, 1 h post (1.17 h)): 344.1 µg/mmol creatinine | metabolite concentration in urine (U IX, 2 h post (1.83 h)): 337.6 µg/kg | metabolite concentration in urine, creatinine-normalized (U IX, 2 h post (1.83 h)): 320.5 µg/mmol creatinine | metabolite concentration in urine (U IX, 4 h post (4.17 h)): 293.5 µg/kg | metabolite concentration in urine, creatinine-normalized (U IX, 4 h post (4.17 h)): 56.6 µg/mmol creatinine | metabolite concentration in urine (U IX, 6 h post (6.08 h)): 182.9 µg/kg | metabolite concentration in urine, creatinine-normalized (U IX, 6 h post (6.08 h)): 57.5 µg/mmol creatinine | metabolite concentration in urine (U IX, 8 h post (8.08 h)): 100.1 µg/kg | metabolite concentration in urine, creatinine-normalized (U IX, 8 h post (8.08 h)): 7.2 µg/mmol creatinine | metabolite concentration in urine (U IX, 24 h post (24.00 h)): 30.4 µg/kg | metabolite concentration in urine, creatinine-normalized (U IX, 24 h post (24.00 h)): 3.5 µg/mmol creatinine | metabolite concentration in urine (U IX, pre (-0.08 h)): < LOD^2 | metabolite concentration in urine, creatinine-normalized (U IX, pre (-0.08 h)): < LOD^2 | metabolite concentration in urine (U V, 0.5 h post (0.50 h)): 84.4 µg/kg | metabolite concentration in urine, creatinine-normalized (U V, 0.5 h post (0.50 h)): 123.5 µg/mmol creatinine | metabolite concentration in urine (U V, 1 h post (1.00 h)): 122.6 µg/kg | metabolite concentration in urine, creatinine-normalized (U V, 1 h post (1.00 h)): 146.3 µg/mmol creatinine | metabolite concentration in urine (U V, 2 h post (2.00 h)): 104.6 µg/kg | metabolite concentration in urine, creatinine-normalized (U V, 2 h post (2.00 h)): 124.9 µg/mmol creatinine | metabolite concentration in urine (U V, 4 h post (4.00 h)): 104.9 µg/kg | metabolite concentration in urine, creatinine-normalized (U V, 4 h post (4.00 h)): 34.0 µg/mmol creatinine | metabolite concentration in urine (U V, 6 h post (6.00 h)): 68.8 µg/kg | metabolite concentration in urine, creatinine-normalized (U V, 6 h post (6.00 h)): 13.8 µg/mmol creatinine | metabolite concentration in urine (U V, 8 h post (8.00 h)): 29.0 µg/kg | metabolite concentration in urine, creatinine-normalized (U V, 8 h post (8.00 h)): 13.4 µg/mmol creatinine | metabolite concentration in urine (U V, 24 h post (24.00 h)): 1.9 µg/kg | metabolite concentration in urine, creatinine-normalized (U V, 24 h post (24.00 h)): 0.3 µg/mmol creatinine | metabolite concentration in urine (U V, pre (-0.05 h)): < LOD^2 | metabolite concentration in urine, creatinine-normalized (U V, pre (-0.05 h)): < LOD^2 | metabolite concentration in urine (U VI, 0.5 h post (0.50 h)): 193.1 µg/kg | metabolite concentration in urine, creatinine-normalized (U VI, 0.5 h post (0.50 h)): 88.3 µg/mmol creatinine | metabolite concentration in urine (U VI, 1 h post (1.00 h)): 203.5 µg/kg | metabolite concentration in urine, creatinine-normalized (U VI, 1 h post (1.00 h)): 169.6 µg/mmol creatinine | metabolite concentration in urine (U VI, 2 h post (2.00 h)): 143.4 µg/kg | metabolite concentration in urine, creatinine-normalized (U VI, 2 h post (2.00 h)): 129.2 µg/mmol creatinine | metabolite concentration in urine (U VI, 4 h post (4.00 h)): 134.9 µg/kg | metabolite concentration in urine, creatinine-normalized (U VI, 4 h post (4.00 h)): 39.0 µg/mmol creatinine | metabolite concentration in urine (U VI, 6 h post (6.00 h)): 188.9 µg/kg | metabolite concentration in urine, creatinine-normalized (U VI, 6 h post (6.00 h)): 35.0 µg/mmol creatinine | metabolite concentration in urine (U VI, 8 h post (8.00 h)): 79.0 µg/kg | metabolite concentration in urine, creatinine-normalized (U VI, 8 h post (8.00 h)): 15.8 µg/mmol creatinine | metabolite concentration in urine (U VI, 24 h post (24.17 h)): 139.8 µg/kg | metabolite concentration in urine, creatinine-normalized (U VI, 24 h post (24.17 h)): 9.6 µg/mmol creatinine | metabolite concentration in urine (U VI, pre (-0.05 h)): < LOD^2 | metabolite concentration in urine, creatinine-normalized (U VI, pre (-0.05 h)): < LOD^2 | metabolite concentration in urine (U VII, 0.5 h post (0.50 h)): 133.2 µg/kg | metabolite concentration in urine, creatinine-normalized (U VII, 0.5 h post (0.50 h)): 125.0 µg/mmol creatinine
Structure (SMILES): C=CC[S+](C)[O-] (stereo not shown) [AMSO, allyl methyl sulfoxide]
